Assays:
[1] = target: T1, IRAK4 (Homo sapiens (Human), UniProt Q9NWZ3); experiment: IRAK4 degradation in human whole blood lymphocyte - flow cytometry; assay type: cell-based; conditions: read-out: IRAK4 degradation in whole blood lymphocyte-Flow cytometry: Average external Abs IC50
In short: (§1)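 Fresh heparinized human whole blood dosed (10-point, 5-fold, 0.1% DMSO) for 20 h or 4 h at 37 °C, then fixed, stained and IRAK4 MFI quantified by flow in CD14+ monocytes and CD14− lymphocytes. DC50 and Dmax via 4-parameter logistic fit normalized to DMSO and 10 μM control.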

[2] = tested on: TNFα; experiment: Human PBMC LPS TNFα assay; assay type: cell-based; conditions: hPBMC, LPS stimulation, read-out: IRAK4 hPBMC LPS TNF-α inhibition: Average external-IC50
Procedure: Human PBMC LPS TNFα assay. Frozen PBMCs were thawed into RPMI with 10% FBS/1% penicillin/streptomycin and same day plated into 96 well plates at 200,000 PBMC/[…] media per well. Compound plates were prepared in DMSO with D300 cassette as 8-point dose curves in duplicate, starting dose 2 μM, 5-fold. Compounds are added 200 nL into cells for final 200 μL per well. Compound and cells were incubated at 37° C., 5% CO2 for 20 hours. After twenty hours of pretreatment with the compounds, LPS (01 1 1:B4) (Sigma #L2637) was added at 100 ng/ml final concentration and PBMCs incubated an additional five hours at 37° C., 5% CO2. Following assay completion, PBMC plates were spun down at 2000 rpm for 10 minutes. 100 uL of supernatant was carefully removed and placed into a new 96 well Costar (#3879) plate and stored at −80° C. until further analysis. Meso scale Discovery (MSD) human V-plex assays were used to measure cytokine levels. On day of cytokine analysis, supernatant samples were thawed, diluted with V-plex diluent #2, and directly to MSD plates. Assay was further completed per standard manufacturer's protocol. Cytokine data was normalized to LPS stimulated and unstimulated controls. Prism Graphpad was used to generate IC50 using 4 parameter logistic regression curve, free-fit.

[3] = tested on: TNFα; experiment: Human whole blood LPS TNFα assay; assay type: cell-based; conditions: 20 h pretreatment, LPS 5 h, read-out: IRAK4 human whole blood LPS TNFa inhibition: Average external-IC50
Procedure: Human Whole blood LPS TNFα assay. Whole blood was collected fresh and plated same day into 96 well plates at 180 μL per well. Compound plates were prepared in DMSO as 8-point dose curves in duplicate, starting dose 2 μM, 5-fold. Compounds are added 20 μL into blood for final 200 μL per well. Compound and cells were incubated at 37° C., 5% CO2 for 20 hours. After twenty hours of pretreatment with the compounds, LPS (01 1 1:B4) (Sigma #L2637) was added at 100 ng/ml final concentration and blood incubated an additional five hours at 37° C., 5% CO2. Following assay completion, whole blood plates were spun down at 2000 rpm for 15 minutes at 4° C. 50 μL of plasma was carefully removed and placed into a new 96 well Costar (#3879) plate and stored at −80° C. until further analysis. Meso scale Discovery (MSD) human V-plex assays were used to measure cytokine levels. On day of cytokine analysis, plasma samples were thawed, diluted with V-plex diluent #2, and directly to MSD plates. Assay was further completed per standard manufacturer's protocol. Cytokine data was normalized to LPS stimulated and unstimulated controls. Prism Graphpad was used to generate IC50 using 4 parameter logistic regression curve, free-fit.

[4] = target: T1, IRAK4; experiment: IRAK4 degradation in human whole blood monocyte - flow cytometry; assay type: cell-based; conditions: read-out: IRAK4 degradation in whole blood monocyte-Flow cytometry: Average external Abs IC50
In short: as §1

[5] = tested on: OCI-LY10; experiment: CTG Cell Viability Assay - OCI-LY10; assay type: cell-based, human; conditions: Homo sapiens, OCI-Ly10, 96 h, OCI-LY10, 4 days; read-out: CTG Cell Viability Assay - OCI-LY10: Average external-IC50
In short: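 OCI-LY10 cells exposed to 9-dose, 1:3 dilutions from 10 μM top (0.2% DMSO) for 4 days at 37° C, 5% CO2. Viability by CellTiter-Glo luminescence; IC50 from three-parameter logistic fit.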

[6] = target: T1, IRAK4; experiment: IRAK4 MSD degradation in OCI-LY10; assay type: cell-based; conditions: MSD
In short: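 OCI-LY10 cells treated with 8-point 1:3 dilutions (top 1 to 10 μM final) for 4 to 24 h at 37° C. Lysate IRAK4 measured by MSD sandwich immunoassay (2H9 capture, Y279 detection, SULFO-TAG anti-rabbit). DC50 from three-parameter logistic fit.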

[7] = target: T1, IRAK4; experiment: IRAK4 degradation in OCI-LY10 (DC50); assay type: cell-based; conditions: read-out: IRAK4 Degradation in OCI-LY10, DC50
[8] = tested on: OCI-LY10; experiment: OCI-LY10 viability, CTG; assay type: cell-based; conditions: Homo sapiens, OCI-Ly10; MYD88 Mutant Lines; read-out: OCI-LY10 Viability, CTG IC50
[9] = tested on: OCI-LY19; experiment: OCI-LY19 viability, CTG; assay type: cell-based; conditions: Homo sapiens, OCI-LY19; MYD88 WT Lines; read-out: OCI-LY19 Viability, CTG IC50
[10] = tested on: SU-DHL6; experiment: SU-DHL6 viability, CTG; assay type: cell-based; conditions: Homo sapiens, SU-DHL-6; MYD88 WT Lines; read-out: SU-DHL6 Viability, CTG IC50
[11] = tested on: SU-DHL2; experiment: SU-DHL2 viability, CTG; assay type: cell-based; conditions: Homo sapiens, SU-DHL-2; MYD88 Mutant Lines; read-out: SU-DHL2 Viability, CTG IC50
[12] = tested on: U2932; experiment: U2932 viability, CTG; assay type: cell-based; conditions: Homo sapiens, U2932; MYD88 WT Lines; read-out: U2932 Viability, CTG IC50
[13] = OCI-LY10, 4 hrs, read-out: IRAK4 MSD degradation in OCI-LY10 at 4 hrs: Average external-Abs DC50
[14] = OCI-LY10, 24 hrs, read-out: IRAK4 MSD degradation in OCI-LY10 at 24 hrs: Average external-Abs DC50

T1 sequence (Q9NWZ3 whole entry): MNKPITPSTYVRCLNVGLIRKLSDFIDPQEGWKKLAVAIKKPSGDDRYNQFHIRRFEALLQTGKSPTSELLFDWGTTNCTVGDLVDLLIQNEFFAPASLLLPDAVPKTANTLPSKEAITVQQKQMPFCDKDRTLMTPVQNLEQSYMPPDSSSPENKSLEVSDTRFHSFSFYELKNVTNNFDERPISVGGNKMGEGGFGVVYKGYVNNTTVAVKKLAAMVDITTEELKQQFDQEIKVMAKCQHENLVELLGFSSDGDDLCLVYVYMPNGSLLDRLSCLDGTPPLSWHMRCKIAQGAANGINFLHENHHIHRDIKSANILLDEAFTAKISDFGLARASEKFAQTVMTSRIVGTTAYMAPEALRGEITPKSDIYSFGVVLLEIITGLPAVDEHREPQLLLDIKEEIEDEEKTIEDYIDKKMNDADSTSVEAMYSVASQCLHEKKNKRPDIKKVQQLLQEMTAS

SMILES	DC50 [1]	IC50 [2]	IC50 [3]	IC50 [4]	IC50 [5]	DC50 [6, 13]	DC50 [4]	DC50 [6, 14]	DC50 [7]	IC50 [8]	IC50 [9]	IC50 [10]	IC50 [11]	IC50 [12]
O=C1CCC(N2C[C@H](c3ccc(C#CCN4CCO[C@@H](CNC[C@H]5CC[C@H](n6cc(NC(=O)c7coc(-c8ccnc(NCC9CC9)c8)n7)c(C(F)F)n6)CC5)C4)cc3)OC2=O)C(=O)N1 (some centres unmarked) [I-40]	100 to 500 nM	< 50 nM	100 to 500 nM	< 50 nM	< 50 nM	10 to 100 nM								
Cn1c(=O)n(C2CCC(=O)NC2=O)c2ccc(CCOCCN3CCO[C@@H](CNC[C@H]4CC[C@H](n5cc(NC(=O)c6cnn7ccc(N8CCNCC8)nc67)c(C(F)F)n5)CC4)C3)cc21 (some centres unmarked) [I-41]	< 50 nM	100 to 500 nM	500 to 1000 nM	< 50 nM	> 1000 nM	< 10 nM								
Cn1c(=O)n(C2CCC(=O)NC2=O)c2ccc(CCCCOCCCCNC[C@H]3CC[C@H](n4cc(NC(=O)c5cnn6ccc(N7CCNCC7)nc56)c(C(F)F)n4)CC3)cc21 (some centres unmarked) [I-42]	< 50 nM	100 to 500 nM	> 1000 nM	< 50 nM	> 1000 nM	10 to 100 nM								
CN(CCOCCOCCCc1ccc2c(c1)oc(=O)n2C1CCC(=O)NC1=O)C[C@H]1CC[C@H](n2cc(NC(=O)c3coc(-c4ccnc(NCC5CC5)c4)n3)c(C(F)F)n2)CC1 (some centres unmarked) [I-43]	100 to 500 nM	100 to 500 nM	100 to 500 nM		> 1000 nM	10 to 100 nM	50 to 100 nM							
Cn1c(=O)n(C2CCC(=O)NC2=O)c2ccc(CN3CCN(CCO[C@H]4C[C@H](N(C)C(=O)[C@H]5CC[C@H](n6cc(NC(=O)c7coc(-c8ccnc(NCC9CC9)c8)n7)c(C(F)F)n6)CC5)C4)CC3)cc21 (some centres unmarked) [I-45]	50 to 100 nM	< 50 nM	500 to 1000 nM	< 50 nM	< 50 nM	< 10 nM								
CN(CCCOCCCc1ccc2c(c1)c1cccnc1n2C1CCC(=O)NC1=O)C[C@H]1CC[C@H](n2cc(NC(=O)c3coc(-c4ccnc(NCC5CC5)c4)n3)c(C(F)F)n2)CC1 (some centres unmarked) [I-46]	100 to 500 nM	100 to 500 nM	> 1000 nM		500 to 1000 nM	10 to 100 nM	500 to 1000 nM	10 to 100 nM						
O=C1CCC(n2c3ccc(CCCOCCOCCNCC4CCC(n5cc(NC(=O)c6coc(-c7ccnc(NCC8CC8)c7)n6)c(C(F)F)n5)CC4)cc3c3cccnc32)C(=O)N1 (centres unmarked) [I-47]	100 to 500 nM	100 to 500 nM	> 1000 nM		100 to 500 nM	10 to 100 nM	500 to 1000 nM	10 to 100 nM						
Cn1c(=O)n(C2CCC(=O)NC2=O)c2cccc(CCCOC3CCN(C[C@H]4CC[C@H](n5cc(NC(=O)c6coc(-c7ccnc(NCC8CC8)c7)n6)c(C(F)F)n5)CC4)CC3)c21 (some centres unmarked) [I-48]	< 50 nM	100 to 500 nM	100 to 500 nM	< 50 nM	< 50 nM	< 10 nM								
Cn1c(=O)n(C2CCC(=O)NC2=O)c2cccc(CCCOCCN3CCN(C[C@H]4CC[C@H](n5cc(NC(=O)c6coc(-c7ccnc(NCC8CC8)c7)n6)c(C(F)F)n5)CC4)CC3)c21 (some centres unmarked) [I-58]	50 to 100 nM	100 to 500 nM	> 1000 nM	< 50 nM	50 to 100 nM	< 10 nM								
CN(C[C@H]1CN(CC#Cc2ccc3c(c2)n(C)c(=O)n3C2CCC(=O)NC2=O)CCO1)C[C@H]1CC[C@H](n2cc(NC(=O)c3coc(-c4ccnc(NCC5CC5)c4)n3)c(C(F)F)n2)CC1 (some centres unmarked) [I-61]	100 to 500 nM	100 to 500 nM	> 1000 nM		100 to 500 nM	10 to 100 nM	50 to 100 nM							
CN(CCCOCCCc1ccc2c(c1)n(C)c(=O)n2C1CCC(=O)NC1=O)C[C@H]1CC[C@H](n2cc(NC(=O)c3coc(-c4ccnc(NCC5CC5)c4)n3)c(C(F)F)n2)CC1 (some centres unmarked) [I-62]	< 50 nM	100 to 500 nM	> 1000 nM	< 50 nM	50 to 100 nM	< 10 nM								
Cn1c(=O)n(C2CCC(=O)NC2=O)c2cccc(CCCOCC3CN(C[C@H]4CC[C@H](n5cc(NC(=O)c6coc(-c7ccnc(NCC8CC8)c7)n6)c(C(F)F)n5)CC4)C3)c21 (some centres unmarked) [I-65]	50 to 100 nM	< 50 nM	> 1000 nM	< 50 nM	< 50 nM	< 10 nM								
CC[C@@H]1CC(=O)N[C@@H]1COc1ncc(C#C[C@H]2CC[C@H](CN3CCC(OCCCc4cccc5c4n(C)c(=O)n5C4CCC(=O)NC4=O)CC3)CC2)c2cc(C(N)=O)c(OC)cc12 (some centres unmarked) [I-229]					> 1000 nM	10 to 100 nM		10 to 100 nM	26 nM	3500 nM	> 10000 nM	4100 nM	> 10000 nM	> 10000 nM

— patent US11352350B2, “IRAK degraders and uses thereof” (Kymera Therapeutics, Inc., priority 2018, dated 2022)
